From article PMC11641755, “Features of Highly Homologous T-Cell Receptor Repertoire in the Immune Response to Mutations in Immunogenic Epitopes” (International Journal of Molecular Sciences, 2024)

What was measured:
Assay type in all cases: cell-based, human
[1] = tested on: TCR NYN-2 (Jurkat E6-1 TPR cells)
[2] = tested on: TCR NYN-1 (Jurkat E6-1 TPR cells)
[3] = tested on: TCR NYN-3 (Jurkat E6-1 TPR cells)
[4] = tested on: NYN peptide-specific TCRs (NYN-1 to NYN-4 Jurkat E6-1 TPR cell lines)

Sequence	effect of the mutation on response / affinity of NYN-2 (in words) [1]	effect of the mutation on response / affinity of NYN-1 (in words) [2]	effect of the mutation on response / affinity of NYN-3 (in words) [3]	effect of the mutation on the T-cell response / recognition (in words) [4]
NYDYMYRLF [N450D + L452M]	slightly disrupted the response	not	slightly disrupted the response	
NYDYWYRLF [N450D + L452W]	increased the affinity		increased the affinity	did not affect the T-cell response
